Assay results taken from patent publication US20240423979A1, “THERAPEUTICALLY EFFECTIVE COMBINATION OF A FLT3 INHIBITOR AND A BCL-2 INHIBITOR FOR THE TREATMENT OF ACUTE MYELOID LEUKEMIA” (Hanmi Pharm. Co., Ltd., priority 2021, published 2024).

Experiments:
[1] = tested on: MOLM-13 cell line carrying the FLT3-WT/ITD heterogeneous mutation; test: MOLM-13 cell line xenografted mouse model, anti-tumor efficacy; assay type: in vivo, nude mice; settings: MOLM-13 xenograft, Compound A 10 mg/kg, venetoclax 100 mg/kg; for Maximum inhibition (%): oral once a day for 14 days, combination 10 + 100 mg/kg, largest tumor inhibition rate during observation
Procedure: In a mouse model xenografted with the MOLM-13 (DSMZ no. ACC 554) cell line carrying the FLT3-WT/ITD heterogeneous mutation, a comparative or combination efficacy test of the FLT3 inhibitor, 5-chloro-N-(3-cyclopropyl-5-(((3R,5S)-3,5-dimethylpiperazine-1-yl) methyl) phenyl)-4-(6-methyl-1H-indol-3-yl) pyrimidin-2-amine (hereinafter ‘Compound A’) and the Bcl-2 inhibitor, venetoclax was conducted.
The MOLM-13 cell line was purchased from Deutsche Sammlung von Mikroorganismen und Zellkulturen (DSMZ) GmbH. To construct a mouse model xenografted with this MOLM-13 cell line, 5-week-old male nude mice were purchased from Charles River Laboratories Japan, Inc.
The MOLM-13 cell line was injected subcutaneously into nude mice at 5×10^6 cells/0.2 mL/mouse, and was allowed to grow. Mice having a tumor volume of 55 to 415 mm^3 (length×width^2×0.5) were selected on the day of administration, and after having been divided into 4 groups (3 mice each in the control group and the compound A group, 4 mice each in the venetoclax group and the compound A and venetoclax combination group) so that the average tumor volume of each group was similar, the control group was administered for 11 days, and each drug administration group received individual medications for 14 days. The control group was measured for 12 days, and each drug administration group was measured for 15 days.
The control group received an oral administration of a mixed solution of DMSO/PEG400/DW (ratio=0.5/2/7.5, volume/volume/volume) once a day, the compound A group received an oral administration once a day at a dose of 10 mg/kg/day, and the venetoclax group received an oral administration once a day at a dose of 100 mg/kg/day. […]
The maximum inhibition rate (%) and the change in weight loss (%) of mice were calculated, and the experimental results are shown in Table 2. […] The change in weight loss (%) was calculated from “(1−body weight on the measurement day/weight on the start date of administration)×100%”. Relative tumor volume was calculated from “tumor volume on measurement day/initial tumor volume×100%”.

[2] = tested on: MV-4-11 cell line with FLT3 ITD/ITD isogenic mutation; test: MV-4-11 cell line xenografted mouse model, anti-tumor efficacy; assay type: in vivo, BALB/c Nude mouse; settings: MV-4-11 xenograft, Compound A 3 mg/kg; for Maximum inhibition (%): oral once a day for 21 days, combination 3 + 100 mg/kg, largest tumor inhibition rate during observation
Description: In a mouse model xenografted with the cell line MV-4-11 with FLT3 ITD/ITD isogenic mutation (ATCC, CRL-9591), a comparative or combination efficacy test of the FLT3 inhibitor, 5-chloro-N-(3-cyclopropyl-5-(((3R,5S)-3,5-dimethylpiperazin-1-yl) methyl) phenyl)-4-(6-methyl-1H-indol-3-yl) pyrimidin-2-amine (hereinafter ‘Compound A’), and the Bcl-2 inhibitor, 4-[4-[[2-(4-chlorophenyl)-4,4-dimethylcyclohexen-1-yl]methyl] piperazin-1-yl]-N-[3-nitro-4-(oxan-4-ylmethylamino) phenyl] sulfonyl-2-(1H-pyrrolo [2,3-b]pyridin-5-yloxy) benzamide (hereinafter ‘venetoclax’), was conducted.
MV-4-11 cell lines were purchased from the American Type Culture Collection (ATCC). To build a mouse model xenografted with this MV-4-11 cell line, a 5-week-old male BALB/c Nude mouse (hereinafter referred to as “Nude Mouse”) was purchased from Charles River Laboratories Japan, Inc.
The MV-4-11 cell line was injected subcutaneously in a nude mouse with 5×10^6 cells/0.15 mL/mouse, and was allowed to grow. Mice with a tumor volume of 80 to 300 mm^3 (length×width^2×0.5) were selected on the day of administration, separated into 4 groups (7/group) and administered for a total of 21 days so that the average tumor volume in each group was almost the same.
The control group was administered DMSO/PEG400/DW (ratio=0.5/2/7.5, volume/volume/volume) mixed solution orally once a day, and the compound A group was administered 3 mg/kg/day once a day. It was orally administered, and the venetoclax group was orally administered once a day at a dose of 100 mg/kg/day. In the combined group, compound A was administered orally once a day at a dose of 3 mg/kg/day, and venetoclax was administered orally once a day at a dose of 100 mg/kg/day. Each group was administered individual medications for 21 days.
The maximum inhibition rate (%) and the change in weight loss (%) of mice were calculated, and the experimental results are shown in Table 1. The Inhibition rate (IR) was obtained from “(1−mean of individual relative tumor volume in the drug treatment group/average of individual relative tumor volume in the control group)×100%”, and the maximum inhibition rate was the largest inhibition rate during the observation period. The change in weight loss (%) was calculated from “(1−weight on the day of measurement/weight on the start day of administration)×100%”. The relative tumor volume was calculated from “the tumor volume/initial tumor volume×100% at the date of measurement”.

[3] = tested on: relapsed or refractory AML; test: Open-label first-in-human dose escalation, exploration and expansion study; assay type: in vivo; settings: patients with relapsed or refractory AML, single agent, 80 mg dose daily oral
Description: This study is an open-label, first-in-human, dose escalation, exploration, and expansion study of Compound A as a single agent and in combination with venetoclax in patients with relapsed or refractory AML. Cycle 1 in dose escalation is defined as 30 days, all other cycles lasting at least 28 days. Patients will receive oral Compound A at QD on a continuous basis, with the exception of Cycle 1 Day 2 in Part A. The study treatment can continue until a discontinuation criterion is met.
The initial dose level of Compound A as a single agent was 20 mg daily and the decision to dose escalate to the next dose level is made based on the assessment of safety variables including moderate toxicity (MT, a Grade 2 AE judged by the investigator to be related to study drug (except for hematologic toxicities)) or dose limiting toxicity (DLT). This study includes 3 parts: Part A: Dose Escalation; Part B: Dose Exploration; and Part C: Dose Expansion.
Part A includes the initial dose escalation cohorts. Provisional dose escalation scheme with the planned doses of Compound A are as follows: 20 mg, 30 mg, 40 mg, 60 mg, 80 mg, 120 mg, 160 mg, 200 mg, or 240 mg. Patients are treated daily in 28-day cycles except for the Cycle 1 (30 days). The DLT observation period is during Cycle 1 starting with the first dose on Day 1. […]

SMILES | Maximum inhibition (%) [1] | complete regression (mice per group) ([1]; combined group on 7th day of administration) | complete regression (mice out of 7) ([2]; 9th day of administration, venetoclax 100 mg/kg) | partial regression (mice out of 7) ([2]; 16th day of administration) | Maximum inhibition (%) ([2]; venetoclax 100 mg/kg) | clinical response (complete responses) [3]
Cc1ccc2c(-c3nc(Nc4cc(CN5C[C@@H](C)N[C@@H](C)C5)cc(C5CC5)c4)ncc3Cl)c[nH]c2c1 [Compound A, 5-chloro-N-(3-cyclopropyl-5-(((3R,5S)-3,5-dimethylpiperazin-1-yl)methyl)phenyl)-4-(6-methyl-1H-indol-3-yl) pyrimidin-2-amine] | 68.1% | not observed | not observed | 1 out of 7 | 54.0% | several complete responses
CC1(C)CCC(CN2CCN(c3ccc(C(=O)NS(=O)(=O)c4ccc(NCC5CCOCC5)c([N+](=O)[O-])c4)c(Oc4cnc5[nH]ccc5c4)c3)CC2)=C(c2ccc(Cl)cc2)C1 [Venetoclax, 4-[4-[[2-(4-chlorophenyl)-4,4-dimethylcyclohexen-1-yl]methyl]piperazin-1-yl]-N-[3-nitro-4-(oxan-4-ylmethylamino)phenyl] sulfonyl-2-(1H-pyrrolo [2,3-b]pyridin-5-yloxy) benzamide, reference compound] | 56.3% | – | – | – | 76.1% | –
